Here are results for two molecules from ChEMBL document CHEMBL1201862, “PubChem BioAssay data set” (2004).

SMILES strings stand for the structures. Active and inactive are the calls of the source. Cut-off read from the data, not from the text of the source, for most assays here: actives have a measured IC50 and inactives only a lower limit.

Format in all cases: functional
A short description of assay [1]: growth suppression of PTEN-null colon cells, dose response, cell-based, HCT116 PTEN knockout (AID 1047).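 Note: HCT116 colon tumor cells with PTEN knocked out; cells exposed to compound for 60 hours before readout; potency for loss of cell viability measured by luminescence.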
Assay [2] concerns the target T1, Caspase-3 (Homo sapiens, UniProt P42574).
T1 sequence (P42574 whole entry): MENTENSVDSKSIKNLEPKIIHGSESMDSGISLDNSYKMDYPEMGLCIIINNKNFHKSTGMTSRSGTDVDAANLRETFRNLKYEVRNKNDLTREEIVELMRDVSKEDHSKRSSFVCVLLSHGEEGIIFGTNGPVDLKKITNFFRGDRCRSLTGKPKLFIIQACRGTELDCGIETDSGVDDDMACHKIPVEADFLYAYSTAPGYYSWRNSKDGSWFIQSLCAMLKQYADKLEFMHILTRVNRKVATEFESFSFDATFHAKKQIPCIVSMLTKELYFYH
Nature of the assay: SAR Analysis of small molecule inhibitors of Sentrin-specific proteases (SENPs) using a Caspase-3 Selectivity assay. [Related pubchem assays (depositor defined):AID2540, AID2599, AID434973, AID489001].

Assay [3] deals with T2, Sentrin-specific protease 8 (Homo sapiens, UniProt Q96LD8).
T2 sequence (Q96LD8 whole entry): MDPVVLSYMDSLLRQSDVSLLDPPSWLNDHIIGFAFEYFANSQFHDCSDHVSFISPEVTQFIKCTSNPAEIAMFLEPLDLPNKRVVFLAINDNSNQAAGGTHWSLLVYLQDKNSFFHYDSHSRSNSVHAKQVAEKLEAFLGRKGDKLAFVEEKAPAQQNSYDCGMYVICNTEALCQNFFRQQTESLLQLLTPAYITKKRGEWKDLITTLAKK
Nature of the assay: SENP8 protease inhibitors, SAR follow-up, biochemical, luminescence (AID 504501).

Assay [4] deals with T3, Sentrin-specific protease 7 (Homo sapiens, UniProt Q9BQF6).
T3 sequence (Q9BQF6 whole entry): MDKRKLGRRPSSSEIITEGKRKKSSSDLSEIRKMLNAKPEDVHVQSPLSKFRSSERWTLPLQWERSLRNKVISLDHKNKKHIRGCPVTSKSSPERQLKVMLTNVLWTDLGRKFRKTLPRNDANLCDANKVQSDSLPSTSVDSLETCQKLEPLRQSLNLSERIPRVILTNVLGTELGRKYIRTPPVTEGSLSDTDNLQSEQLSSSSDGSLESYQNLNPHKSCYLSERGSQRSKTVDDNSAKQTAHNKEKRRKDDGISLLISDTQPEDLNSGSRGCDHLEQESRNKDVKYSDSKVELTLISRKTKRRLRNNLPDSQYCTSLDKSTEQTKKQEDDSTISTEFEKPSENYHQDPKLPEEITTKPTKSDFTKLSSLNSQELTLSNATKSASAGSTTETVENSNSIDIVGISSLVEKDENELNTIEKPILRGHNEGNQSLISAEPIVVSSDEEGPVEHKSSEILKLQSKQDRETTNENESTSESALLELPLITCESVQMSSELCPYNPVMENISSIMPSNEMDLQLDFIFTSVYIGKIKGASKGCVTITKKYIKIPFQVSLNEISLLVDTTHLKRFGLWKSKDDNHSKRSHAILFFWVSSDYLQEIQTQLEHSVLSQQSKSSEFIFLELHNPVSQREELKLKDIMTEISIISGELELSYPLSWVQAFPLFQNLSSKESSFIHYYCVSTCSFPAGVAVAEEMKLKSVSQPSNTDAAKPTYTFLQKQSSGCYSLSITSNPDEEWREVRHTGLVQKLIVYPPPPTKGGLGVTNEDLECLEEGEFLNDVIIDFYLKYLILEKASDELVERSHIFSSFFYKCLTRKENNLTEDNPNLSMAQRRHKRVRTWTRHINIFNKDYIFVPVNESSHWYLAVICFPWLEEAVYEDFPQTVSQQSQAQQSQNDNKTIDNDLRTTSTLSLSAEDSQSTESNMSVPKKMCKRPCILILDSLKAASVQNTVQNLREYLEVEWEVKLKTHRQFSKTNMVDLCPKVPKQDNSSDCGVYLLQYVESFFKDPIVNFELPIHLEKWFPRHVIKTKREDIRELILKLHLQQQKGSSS

Assay [5] deals with T4, Sentrin-specific protease 6 (Homo sapiens, UniProt Q9GZR1).
T4 sequence (Q9GZR1 whole entry): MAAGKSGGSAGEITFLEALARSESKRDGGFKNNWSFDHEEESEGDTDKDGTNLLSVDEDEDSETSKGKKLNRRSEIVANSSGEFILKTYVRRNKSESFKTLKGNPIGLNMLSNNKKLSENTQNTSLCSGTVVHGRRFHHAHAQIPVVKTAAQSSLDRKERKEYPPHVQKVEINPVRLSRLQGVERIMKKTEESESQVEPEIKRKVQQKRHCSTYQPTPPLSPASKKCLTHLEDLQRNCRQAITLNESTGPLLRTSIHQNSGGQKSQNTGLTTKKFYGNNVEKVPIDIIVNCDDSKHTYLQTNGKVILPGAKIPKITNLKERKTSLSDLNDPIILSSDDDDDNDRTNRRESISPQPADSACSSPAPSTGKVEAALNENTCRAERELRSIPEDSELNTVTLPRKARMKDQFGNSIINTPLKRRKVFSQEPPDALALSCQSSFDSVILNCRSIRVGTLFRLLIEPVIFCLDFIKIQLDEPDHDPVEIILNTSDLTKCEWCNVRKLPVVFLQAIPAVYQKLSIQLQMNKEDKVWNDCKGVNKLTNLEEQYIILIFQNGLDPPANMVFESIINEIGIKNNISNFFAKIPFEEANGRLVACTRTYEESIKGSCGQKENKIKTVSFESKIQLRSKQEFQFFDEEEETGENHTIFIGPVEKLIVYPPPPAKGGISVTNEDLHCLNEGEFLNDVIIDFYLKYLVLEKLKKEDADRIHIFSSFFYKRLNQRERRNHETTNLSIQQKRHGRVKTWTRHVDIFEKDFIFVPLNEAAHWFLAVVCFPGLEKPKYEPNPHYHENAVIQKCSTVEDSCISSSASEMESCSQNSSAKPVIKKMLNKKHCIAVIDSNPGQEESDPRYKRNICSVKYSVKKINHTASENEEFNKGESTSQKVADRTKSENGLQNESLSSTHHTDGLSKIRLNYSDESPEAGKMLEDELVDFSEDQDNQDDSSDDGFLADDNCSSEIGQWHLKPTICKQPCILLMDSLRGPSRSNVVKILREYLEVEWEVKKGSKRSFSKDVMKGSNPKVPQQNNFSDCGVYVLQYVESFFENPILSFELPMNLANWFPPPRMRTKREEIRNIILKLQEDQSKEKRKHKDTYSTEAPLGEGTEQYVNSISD
Nature of the assay: SAR Analysis of small molecule inhibitors of Sentrin-specific protease 6 (SENP6) using a Luminescent assay. [Related pubchem assays (depositor defined):AID2582, AID2599].

The target in assay [6] is T4, Sentrin-specific protease 6.
The target of assay [7] is T1, Caspase-3.
In assay [8] the target is T2, Sentrin-specific protease 8.

For `Oc1cccc(/C=N/Nc2cc(N3CCCC3)nc(N3CCCC3)n2)c1`, the EC50 in assay [1] was 20.3 µM (active). Moreover, the IC50 on Caspase-3 [2] was > 99 µM (inactive); in assay [3], > 99 µM (inactive); in assay [4], 9.99 µM (active); in assay [5], 20.4 µM (active); in assay [6], 6.69 µM (active); on Caspase-3 [7] it was > 100 µM (inactive). Further, the IC50 in assay [8] was 17.2 µM (active).

With `CCOC(=O)C1=C(COC(=O)c2ccc([N+](=O)[O-])s2)NC(=O)NC1C` (configuration not stated), the concentration for half-maximal inhibition (IC50) in assay [4] was 6.1 µM (active); in assay [6], 4.48 µM (active); at Caspase-3 [7], 8.13 µM (active); in assay [8], 3.57 µM (active).

For orientation: EC50 means the midpoint of the concentration-response curve. What is called IC50 is the midpoint of a concentration-inhibition curve.
